“And” between values parts separate entries of the source, which are not always exact repeats. Equal entries are not always repeated.
How the values were obtained:
Assay in all cases: radiometric filter-binding kinase assay, Kinase HotSpot
Settings in all cases: compound 0.5 µM; ATP 10 µM
BMX (human) = BMX (human) (UniProt P51813)
MYLK (human) = MYLK (human) (UniProt Q15746)
SRC (human) = SRC (human) (UniProt P12931)
PLK2 (human) = PLK2 (human) (UniProt Q9NYY3)
CDK9 CCNT1 (human) = CDK9 CCNT1 (human) (UniProt P50750+O60563)
GRK5 (human) = GRK5 (human) (UniProt P34947)
FGFR4 (human) = FGFR4 (human) (UniProt P22455)
HIPK3 (human) = HIPK3 (human) (UniProt Q9H422)
MAPK13 (human) = MAPK13 (human) (UniProt O15264)
GSK3A (human) = GSK3A (human) (UniProt P49840)
MAPK14 (human) = MAPK14 (human) (UniProt Q16539)
PAK7 (human) = PAK7 (human) (UniProt Q9P286)
PAK7 (human), sequence (Q9P286 whole entry, looked up): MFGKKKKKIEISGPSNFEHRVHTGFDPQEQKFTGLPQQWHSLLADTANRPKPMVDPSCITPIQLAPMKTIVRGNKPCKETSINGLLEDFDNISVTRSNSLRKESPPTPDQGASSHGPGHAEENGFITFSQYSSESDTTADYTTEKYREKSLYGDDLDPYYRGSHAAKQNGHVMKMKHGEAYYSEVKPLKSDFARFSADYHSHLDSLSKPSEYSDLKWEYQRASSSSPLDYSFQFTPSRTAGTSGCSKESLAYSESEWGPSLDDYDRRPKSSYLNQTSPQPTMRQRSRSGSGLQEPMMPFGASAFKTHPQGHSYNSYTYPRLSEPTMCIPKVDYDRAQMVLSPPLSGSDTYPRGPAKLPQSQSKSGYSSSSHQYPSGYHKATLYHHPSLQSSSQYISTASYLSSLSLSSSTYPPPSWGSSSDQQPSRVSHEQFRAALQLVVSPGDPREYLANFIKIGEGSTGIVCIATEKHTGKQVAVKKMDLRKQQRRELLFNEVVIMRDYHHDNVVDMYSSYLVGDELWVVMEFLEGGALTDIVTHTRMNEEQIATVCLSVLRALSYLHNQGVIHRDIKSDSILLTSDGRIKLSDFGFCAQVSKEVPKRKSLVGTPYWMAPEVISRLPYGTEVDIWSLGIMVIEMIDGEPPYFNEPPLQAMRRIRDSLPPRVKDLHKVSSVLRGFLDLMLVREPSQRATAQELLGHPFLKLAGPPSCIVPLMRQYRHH

STK25 (human) = STK25 (human) (UniProt O00506)
TEC (human) = TEC (human) (UniProt P42680)
HIPK1 (human) = HIPK1 (human) (UniProt Q86Z02)
FGFR2 (human) = FGFR2 (human) (UniProt P21802)
CDK6 CCND1 (human) = CDK6 CCND1 (human) (UniProt Q00534+P24385)
CDK6 CCND1 (human), sequence (P24385 whole entry, looked up): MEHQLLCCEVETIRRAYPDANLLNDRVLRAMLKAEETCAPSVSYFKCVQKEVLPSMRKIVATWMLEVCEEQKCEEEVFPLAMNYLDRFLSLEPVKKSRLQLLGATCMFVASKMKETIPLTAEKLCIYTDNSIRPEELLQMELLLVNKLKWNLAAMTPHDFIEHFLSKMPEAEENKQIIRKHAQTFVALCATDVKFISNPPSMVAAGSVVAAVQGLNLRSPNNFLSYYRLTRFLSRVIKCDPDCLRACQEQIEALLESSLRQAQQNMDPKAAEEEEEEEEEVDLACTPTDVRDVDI
CDK6 CCND1 (human), sequence (Q00534 whole entry, looked up): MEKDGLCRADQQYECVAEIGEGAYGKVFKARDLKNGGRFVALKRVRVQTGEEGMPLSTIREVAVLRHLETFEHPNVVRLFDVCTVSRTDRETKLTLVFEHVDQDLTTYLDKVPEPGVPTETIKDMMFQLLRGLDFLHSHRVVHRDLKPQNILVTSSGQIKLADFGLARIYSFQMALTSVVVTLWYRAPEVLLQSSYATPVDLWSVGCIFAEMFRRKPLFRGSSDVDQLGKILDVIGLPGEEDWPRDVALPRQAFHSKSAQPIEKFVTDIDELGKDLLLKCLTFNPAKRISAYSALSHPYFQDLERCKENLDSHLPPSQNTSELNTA

PRKACA (human) = PRKACA (human) (UniProt P17612)
CDK5 CDK5R1 p35 (human) = CDK5 CDK5R1 p35 (human) (UniProt Q00535+Q15078)
MATK (human) = MATK (human) (UniProt P42679)
MATK (human), sequence (P42679 whole entry, looked up): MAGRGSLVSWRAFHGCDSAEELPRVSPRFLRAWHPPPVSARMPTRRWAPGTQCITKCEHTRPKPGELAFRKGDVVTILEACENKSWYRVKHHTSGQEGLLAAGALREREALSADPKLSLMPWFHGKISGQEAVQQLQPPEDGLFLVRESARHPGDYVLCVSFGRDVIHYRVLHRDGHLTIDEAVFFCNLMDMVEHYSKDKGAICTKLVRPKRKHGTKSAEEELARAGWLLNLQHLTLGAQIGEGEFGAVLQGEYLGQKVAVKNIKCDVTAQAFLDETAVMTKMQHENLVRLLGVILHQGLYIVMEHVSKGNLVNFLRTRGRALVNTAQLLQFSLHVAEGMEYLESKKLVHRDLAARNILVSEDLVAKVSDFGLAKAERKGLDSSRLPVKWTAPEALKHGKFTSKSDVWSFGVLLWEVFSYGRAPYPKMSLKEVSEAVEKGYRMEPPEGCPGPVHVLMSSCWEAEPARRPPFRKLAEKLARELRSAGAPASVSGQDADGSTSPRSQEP

TTK (human) = TTK (human) (UniProt P33981)
NLK (human) = NLK (human) (UniProt Q9UBE8)
PRKCG (human) = PRKCG (human) (UniProt P05129)
MELK (human) = MELK (human) (UniProt Q14680)
SRPK3 (human) = SRPK3 (human) (UniProt Q9UPE1)
DDR2 (human) = DDR2 (human) (UniProt Q16832)
DMPK (human) = DMPK (human) (UniProt Q09013)
AKT2 (human) = AKT2 (human) (UniProt P31751)
EPHA7 (human) = EPHA7 (human) (UniProt Q15375)
BLK (human) = BLK (human) (UniProt P51451)
BLK (human), sequence (P51451 whole entry, looked up): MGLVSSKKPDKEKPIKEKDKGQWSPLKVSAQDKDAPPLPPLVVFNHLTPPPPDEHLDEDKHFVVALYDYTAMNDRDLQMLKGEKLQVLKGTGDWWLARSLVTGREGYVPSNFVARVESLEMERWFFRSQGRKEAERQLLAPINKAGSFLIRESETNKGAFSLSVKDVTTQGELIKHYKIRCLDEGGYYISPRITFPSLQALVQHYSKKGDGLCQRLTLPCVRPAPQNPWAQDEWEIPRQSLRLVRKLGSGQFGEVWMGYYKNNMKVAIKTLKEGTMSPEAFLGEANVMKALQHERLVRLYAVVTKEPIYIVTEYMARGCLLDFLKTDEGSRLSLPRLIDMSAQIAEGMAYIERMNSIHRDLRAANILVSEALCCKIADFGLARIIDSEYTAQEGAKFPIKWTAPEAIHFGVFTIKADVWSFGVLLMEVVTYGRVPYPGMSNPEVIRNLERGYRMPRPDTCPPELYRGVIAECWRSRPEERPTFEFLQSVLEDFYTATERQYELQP

EPHB4 (human) = EPHB4 (human) (UniProt P54760)
EPHA8 (human) = EPHA8 (human) (UniProt P29322)
IRAK1 (human) = IRAK1 (human) (UniProt P51617)
PLK3 (human) = PLK3 (human) (UniProt Q9H4B4)
CSNK1G1 (human) = CSNK1G1 (human) (UniProt Q9HCP0)
CSNK1G1 (human), sequence (Q9HCP0 whole entry, looked up): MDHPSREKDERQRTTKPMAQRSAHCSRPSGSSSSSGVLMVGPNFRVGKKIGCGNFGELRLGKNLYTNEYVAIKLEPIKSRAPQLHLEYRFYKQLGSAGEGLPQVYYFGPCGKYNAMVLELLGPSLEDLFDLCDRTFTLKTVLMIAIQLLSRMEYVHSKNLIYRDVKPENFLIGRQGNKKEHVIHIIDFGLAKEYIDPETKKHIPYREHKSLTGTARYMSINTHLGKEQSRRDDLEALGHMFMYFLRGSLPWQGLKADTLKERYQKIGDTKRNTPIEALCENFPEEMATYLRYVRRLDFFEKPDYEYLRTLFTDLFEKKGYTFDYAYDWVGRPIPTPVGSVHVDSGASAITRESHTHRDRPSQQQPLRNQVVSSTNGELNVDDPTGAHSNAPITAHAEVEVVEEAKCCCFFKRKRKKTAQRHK

SLK (human) = SLK (human) (UniProt Q9H2G2)
STK33 (human) = STK33 (human) (UniProt Q9BYT3)
PRKG1 (human) = PRKG1 (human) (UniProt Q13976)
CAMK2G (human) = CAMK2G (human) (UniProt Q13555)
CAMK2G (human), sequence (Q13555 whole entry, looked up): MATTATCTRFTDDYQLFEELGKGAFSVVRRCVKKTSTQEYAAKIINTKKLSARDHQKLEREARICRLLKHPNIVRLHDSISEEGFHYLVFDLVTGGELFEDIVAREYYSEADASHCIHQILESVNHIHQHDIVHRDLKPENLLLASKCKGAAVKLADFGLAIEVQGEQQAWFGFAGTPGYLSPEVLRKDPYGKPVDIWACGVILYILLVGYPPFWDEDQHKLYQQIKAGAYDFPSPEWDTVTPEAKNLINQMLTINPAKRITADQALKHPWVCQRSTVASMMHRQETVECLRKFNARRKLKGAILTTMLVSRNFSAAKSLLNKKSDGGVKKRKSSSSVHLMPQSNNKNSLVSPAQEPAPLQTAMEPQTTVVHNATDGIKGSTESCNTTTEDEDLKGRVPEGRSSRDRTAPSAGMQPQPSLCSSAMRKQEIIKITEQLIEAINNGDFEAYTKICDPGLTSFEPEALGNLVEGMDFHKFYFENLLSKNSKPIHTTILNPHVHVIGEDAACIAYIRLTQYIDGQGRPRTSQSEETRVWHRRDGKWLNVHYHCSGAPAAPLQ

PAK2 (human) = PAK2 (human) (UniProt Q13177)
INSR (human) = INSR (human) (UniProt P06213)
SGK2 (human) = SGK2 (human) (UniProt Q9HBY8)

PLK2 (human), sequence (Q9NYY3 whole entry, looked up): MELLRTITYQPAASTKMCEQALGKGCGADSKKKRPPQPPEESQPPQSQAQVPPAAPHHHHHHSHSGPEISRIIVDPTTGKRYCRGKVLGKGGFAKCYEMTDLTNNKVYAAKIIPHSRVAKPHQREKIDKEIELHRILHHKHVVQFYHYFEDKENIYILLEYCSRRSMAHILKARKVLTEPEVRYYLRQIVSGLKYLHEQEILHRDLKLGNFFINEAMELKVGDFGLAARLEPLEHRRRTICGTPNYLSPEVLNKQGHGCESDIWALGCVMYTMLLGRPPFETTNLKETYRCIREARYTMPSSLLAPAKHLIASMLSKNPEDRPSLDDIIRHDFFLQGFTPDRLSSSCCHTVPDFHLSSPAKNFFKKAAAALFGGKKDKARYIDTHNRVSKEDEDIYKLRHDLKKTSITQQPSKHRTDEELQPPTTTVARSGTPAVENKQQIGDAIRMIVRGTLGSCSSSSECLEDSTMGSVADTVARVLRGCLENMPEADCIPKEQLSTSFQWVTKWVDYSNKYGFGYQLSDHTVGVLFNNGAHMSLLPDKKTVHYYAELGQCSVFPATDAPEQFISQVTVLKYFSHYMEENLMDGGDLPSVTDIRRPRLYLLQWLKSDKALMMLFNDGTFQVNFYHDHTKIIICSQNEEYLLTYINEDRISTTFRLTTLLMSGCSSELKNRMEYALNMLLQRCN

`O=C(Nc1cccc(Nc2cc(Nc3cccc(C(F)(F)F)c3)ncn2)c1)C1CC1` gave a residual activity (BMX (human)) of 93.7%, a residual activity (MYLK (human)) of 99% and a residual activity (SRC (human)) of 102%. The residual activity (PLK2 (human)) was 109%, the residual activity (CDK9 CCNT1 (human)) was 97.2% and the residual activity (GRK5 (human)) was 109%. It also gave a residual activity (FGFR4 (human)) of 102%, a residual activity (HIPK3 (human)) of 97% and a residual activity (MAPK13 (human)) of 106%. For the same compound, the residual activity (GSK3A (human)) was 101%, the residual activity (MAPK14 (human)) was 98.2% and the residual activity (PAK7 (human)) was 97.5%. It also gave a residual activity (STK25 (human)) of 97.4%, a residual activity (TEC (human)) of 115% and a residual activity (HIPK1 (human)) of 99.7%. For the same compound, the residual activity (FGFR2 (human)) was 105%, the residual activity (CDK6 CCND1 (human)) was 99.1% and the residual activity (PRKACA (human)) was 102%. For the same compound, the residual activity (CDK5 CDK5R1 p35 (human)) was 99.5%, the residual activity (MATK (human)) was 96.1% and the residual activity (TTK (human)) was 98.7%. It also gave a residual activity (NLK (human)) of 95.9%, a residual activity (PRKCG (human)) of 102% and a residual activity (MELK (human)) of 104%. For the same compound, the residual activity (SRPK3 (human)) was 103%, the residual activity (DDR2 (human)) was 106% and the residual activity (DMPK (human)) was 99.7%. The residual activity (AKT2 (human)) was 103%, the residual activity (EPHA7 (human)) was 101% and the residual activity (BLK (human)) was 101%. For the same compound, the residual activity (EPHB4 (human)) was 97.8%, the residual activity (EPHA8 (human)) was 103% and the residual activity (IRAK1 (human)) was 111%. It also gave a residual activity (PLK3 (human)) of 99.1%, a residual activity (CSNK1G1 (human)) of 94.8% and a residual activity (SLK (human)) of 102%. For the same compound, the residual activity (STK33 (human)) was 105%, the residual activity (PRKG1 (human)) was 90.6% and 96.4% and the residual activity (CAMK2G (human)) was 96.1%. The residual activity (PAK2 (human)) was 103%, the residual activity (INSR (human)) was 103% and the residual activity (SGK2 (human)) was 99%.
In the case of `CC(=O)O/N=C1\C(=C2\C(=O)Nc3cc(Br)ccc32)Nc2ccccc21`, the residual activity (BMX (human)) is reported as 67.2%, the residual activity (MYLK (human)) is reported as 74.2% and the residual activity (SRC (human)) is reported as 26.2%. It also gave a residual activity (PLK2 (human)) of 100%, a residual activity (CDK9 CCNT1 (human)) of 91.5% and a residual activity (GRK5 (human)) of 104%. The residual activity (FGFR4 (human)) was 82.6%, the residual activity (HIPK3 (human)) was 76.7% and the residual activity (MAPK13 (human)) was 91.5%. For the same compound, the residual activity (GSK3A (human)) was 6.49%, the residual activity (MAPK14 (human)) was 99.2% and the residual activity (PAK7 (human)) was 89.1%. The residual activity (STK25 (human)) was 80.9%, the residual activity (TEC (human)) was 131% and the residual activity (HIPK1 (human)) was 83%. It also gave a residual activity (FGFR2 (human)) of 85.8%, a residual activity (CDK6 CCND1 (human)) of 53.2% and a residual activity (PRKACA (human)) of 109%. For the same compound, the residual activity (CDK5 CDK5R1 p35 (human)) was 24.7%, the residual activity (MATK (human)) was 93% and the residual activity (TTK (human)) was 93.9%. It also gave a residual activity (NLK (human)) of 106%, a residual activity (PRKCG (human)) of 103% and a residual activity (MELK (human)) of 93.9%. It also gave a residual activity (SRPK3 (human)) of 93.9%, a residual activity (DDR2 (human)) of 89.8% and a residual activity (DMPK (human)) of 95.4%. It also gave a residual activity (AKT2 (human)) of 113%, a residual activity (EPHA7 (human)) of 97.9% and a residual activity (BLK (human)) of 25.6%. The residual activity (EPHB4 (human)) was 92.2%, the residual activity (EPHA8 (human)) was 96.3% and the residual activity (IRAK1 (human)) was 67.4%. It also gave a residual activity (PLK3 (human)) of 96.2%, a residual activity (CSNK1G1 (human)) of 93.9% and a residual activity (SLK (human)) of 80.2%. The residual activity (STK33 (human)) was 70.3%, the residual activity (PRKG1 (human)) was 82.7% and 86.1% and the residual activity (CAMK2G (human)) was 70.6%. It also gave a residual activity (PAK2 (human)) of 103%, a residual activity (INSR (human)) of 94.8% and a residual activity (SGK2 (human)) of 92.8%.
`COc1cc2ncnc(N3CCN(C(=O)Nc4ccc(Oc5ccccc5)cc4)CC3)c2cc1OC` showed a residual activity (BMX (human)) of 90.9%, a residual activity (MYLK (human)) of 101% and a residual activity (SRC (human)) of 102%. The residual activity (PLK2 (human)) was 105%, the residual activity (CDK9 CCNT1 (human)) was 97.3% and the residual activity (GRK5 (human)) was 82.2%. For the same compound, the residual activity (FGFR4 (human)) was 99.7%, the residual activity (HIPK3 (human)) was 87.4% and the residual activity (MAPK13 (human)) was 104%. It also gave a residual activity (GSK3A (human)) of 95.8%, a residual activity (MAPK14 (human)) of 81% and a residual activity (PAK7 (human)) of 96.8%. For the same compound, the residual activity (STK25 (human)) was 100%, the residual activity (TEC (human)) was 101% and the residual activity (HIPK1 (human)) was 96.9%. For the same compound, the residual activity (FGFR2 (human)) was 92.4%, the residual activity (CDK6 CCND1 (human)) was 95.1% and the residual activity (PRKACA (human)) was 96%. For the same compound, the residual activity (CDK5 CDK5R1 p35 (human)) was 99.8%, the residual activity (MATK (human)) was 96.8% and the residual activity (TTK (human)) was 98.3%. For the same compound, the residual activity (NLK (human)) was 99.9%, the residual activity (PRKCG (human)) was 104% and the residual activity (MELK (human)) was 94.9%. It also gave a residual activity (SRPK3 (human)) of 97.3%, a residual activity (DDR2 (human)) of 95.1% and a residual activity (DMPK (human)) of 95.6%. It also gave a residual activity (AKT2 (human)) of 87.6%, a residual activity (EPHA7 (human)) of 96.8% and a residual activity (BLK (human)) of 113%. For the same compound, the residual activity (EPHB4 (human)) was 99.3%, the residual activity (EPHA8 (human)) was 92.5% and the residual activity (IRAK1 (human)) was 116%. It also gave a residual activity (PLK3 (human)) of 91.8%, a residual activity (CSNK1G1 (human)) of 81.6% and a residual activity (SLK (human)) of 97.9%. The residual activity (STK33 (human)) was 94.7%, the residual activity (PRKG1 (human)) was 85.6% and 98.7% and the residual activity (CAMK2G (human)) was 100%. For the same compound, the residual activity (PAK2 (human)) was 104%, the residual activity (INSR (human)) was 98.2% and the residual activity (SGK2 (human)) was 96.7%.
